# Tests used:
# Assay type in all cases: biochemical
# GSK3-β (AA 1-420) = GSK3-β (AA 1-420) (Homo sapiens, UniProt P49841); assay: GSK-3 inhibition assay (coupled enzyme system); conditions: 10 μM ATP, 300 μM peptide, 60 nM GSK-3β, 30° C.
# Experimental: Compounds were screened for their ability to inhibit GSK3-β (AA 1-420) activity using a standard coupled enzyme system (Fox et al. (1998) Protein Sci. 7, 2249). Reactions were carried out in a solution containing 100 mM HEPES (pH 7.5), 10 mM MgCl2, 25 mM NaCl, 300 μM NADH, 1 mM DTT and 1.5% DMSO. Final substrate concentrations in the assay were 10 μM ATP (Sigma Chemicals, St Louis, Mo.) and 300 μM peptide (HSSPHQS(PO3H2)EDEEE, American Peptide, Sunnyvale, Calif.). Reactions were carried out at 30° C. and 60 nM GSK-3β. Final concentrations of the components of the coupled enzyme system were 2.5 mM phosphoenolpyruvate, 300μM NADH, 30 μg/ml pyruvate kinase and 10 μg/ml lactate dehydrogenase.
# An assay stock buffer solution was prepared containing all of the reagents listed above with the exception of ATP and the test compound of interest. 59 μl of the test reaction was placed in a 96 well ½-diameter plate (Corning, Corning, N.Y.) then treated with 1 μl of a 2 mM DMSO stock containing the test compound (final compound concentration 30 μM). The plate was incubated for ˜10 minutes at 30° C. then the reaction initiated by addition of 7 μl of ATP (final concentration 10 μM). Rates of reaction were obtained using a Molecular Devices Spectramax plate reader (Sunnyvale, Calif.) over a 5 minute read time at 30° C.
# (§1) The compound numbers correspond to the compound numbers in Table 1.
# Aurora2 = molecular target: T1, Aurora2 (Homo sapiens, UniProt O14965); assay: Aurora2 inhibition assay (coupled enzyme assay); conditions: 800 μM peptide LRRASLG, 70 nM Aurora2, 30° C.
# T1 sequence (O14965 1-403): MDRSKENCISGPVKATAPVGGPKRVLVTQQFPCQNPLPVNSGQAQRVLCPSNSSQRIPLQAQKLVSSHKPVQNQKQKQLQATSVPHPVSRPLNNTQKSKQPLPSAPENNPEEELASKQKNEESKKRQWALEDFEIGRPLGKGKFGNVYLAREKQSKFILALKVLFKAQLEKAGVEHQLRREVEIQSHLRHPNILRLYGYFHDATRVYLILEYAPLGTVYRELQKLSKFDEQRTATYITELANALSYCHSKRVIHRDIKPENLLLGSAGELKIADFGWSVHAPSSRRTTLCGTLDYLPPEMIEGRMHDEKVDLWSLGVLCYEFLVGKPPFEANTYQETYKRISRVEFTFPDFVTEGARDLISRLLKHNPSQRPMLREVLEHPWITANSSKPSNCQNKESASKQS
# Experimental: Compounds are screened in the following manner for their ability to inhibit Aurora2 using a standard coupled enzyme assay (Fox et al (1998). Protein Sci 7, 2246). To an assay stock buffer solution containing 0.1M HEPES 7.5, 10 mM MgCl2, 1 mM DTT, 25 mM NaCl, 2.5 mM prosphoenolpyruvate, […], […] pyruvate kinase, […] lactate dehydrogenase, […], and 800 μM peptide (LRRASLG, American Peptide, Sunnyvale, Calif.) is added a DMSO solution of a compound of the present invention to a final concentration of 30 μM. The resulting mixture is incubated at 30° C. for 10 minutes. The reaction was initiated by the addition of 10 μL of Aurora2 stock solution to give a final concentration of 70 nM in the assay. The rates of reaction are obtained by monitoring absorbance at 340 nm over a 5 minute read time at 30° C. using a BioRad Ultramark plate reader (Hercules, Calif.). The IC50 values are determined from the rate data as a function of inhibitor concentration.
# as §1
# Syk = Syk (Homo sapiens, UniProt P43405); assay: Syk inhibition assay (coupled enzyme assay); conditions: 200 μM ATP, 4 μM poly Gly-Tyr peptide, 30° C.
# Experimental: Reactions were carried out in 100 mM HEPES pH 7.5, 10 mM MgCl2, 25 mM NaCl, 1 mM DTT and 1.5% DMSO. Final substrate .concentrations in the assay were 200 μM ATP (Sigmachemical Co.) and 4 μM poly Gly-Tyr peptide (Sigma Chemical Co.). Assays were carried out at 30° C. and 200 nM Syk. Final concentrations of the components of the coupled enzyme system were 2.5 mM phosphoenolpyruvate, 300 μM NADH, 30 μg/ml pyruvate kinase and 10 μg/ml lactate dehydrogenase.
# An assay stock buffer solution was prepared containing all of the reagents listed above, with the exception of Syk, DTT and the test compound of interest. 56 μl of the test reaction was placed in a 96 well plate followed by the addition of 1 μl of 2 mM DMSO stock containing the test compound (final compound concentration 30 μM). […] Rates of reaction were obtained using a BioRad Ultramark plate reader (Hercules, Calif.) over a 5 minute read time at 30° C.
# as §1
# Sequence of GSK3-β (AA 1-420) (P49841 whole entry, the tested form may be a part): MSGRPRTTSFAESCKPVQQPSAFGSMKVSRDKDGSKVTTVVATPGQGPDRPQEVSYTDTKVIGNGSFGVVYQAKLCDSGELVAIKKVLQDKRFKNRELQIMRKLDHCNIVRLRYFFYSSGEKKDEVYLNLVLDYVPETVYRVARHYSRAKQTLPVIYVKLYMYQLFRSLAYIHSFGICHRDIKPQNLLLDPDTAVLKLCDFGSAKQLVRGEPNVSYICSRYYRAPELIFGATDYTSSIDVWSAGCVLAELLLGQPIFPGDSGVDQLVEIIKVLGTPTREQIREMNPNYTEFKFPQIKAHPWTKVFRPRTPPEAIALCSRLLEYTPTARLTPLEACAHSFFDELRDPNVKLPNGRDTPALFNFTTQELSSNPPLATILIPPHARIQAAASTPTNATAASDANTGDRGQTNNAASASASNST
Ki (GSK3-β (AA 1-420)),IC50 (Aurora2),IC50 (Syk),Compound
< 100 nM,,,Cc1ccccc1-c1cccc(Nc2nccc(-c3nccs3)n2)c1 [Compound I-3]
< 100 nM,,,Fc1ccccc1-c1cccc(Nc2nccc(-c3nccs3)n2)c1 [Compound I-6]
,> 2000 nM,< 500 nM,"c1ccc(COc2cccc(Nc3nccc(-c4nccs4)n3)c2)cc1 [Compound I-7, (3-Benzyloxy-phenyl)-(4-thiazol-2-yl-pyrimidin-2-yl)-amine]"
< 100 nM,,,c1ccc(Oc2ccc(-c3cccc(Nc4nccc(-c5nccs5)n4)c3)cc2)cc1 [Compound I-9]
> 1000 nM,> 2000 nM,,c1ccc(COc2ccc(Nc3nccc(-c4nccs4)n3)cc2)cc1 [Compound I-10]
< 100 nM,,,COc1ccc(-c2cccc(Nc3nccc(-c4nccs4)n3)c2)c(OC)c1OC [Compound I-12]
,> 2000 nM,,c1ccc(Oc2ccc(Nc3nccc(-c4nccs4)n3)cc2)cc1 [Compound I-13]
< 100 nM,,,COc1cc(F)cc(-c2cccc(Nc3nccc(-c4nccs4)n3)c2)c1 [Compound I-15]
< 100 nM,,,Fc1ccc(-c2cccc(Nc3nccc(-c4nccs4)n3)c2)c(F)c1 [Compound I-18]
< 100 nM,< 500 nM,,c1ccc(COc2cccc(Nc3nccc(-c4nccs4)n3)c2)nc1 [Compound I-20]
> 1000 nM,,,Clc1ccc(Cl)c(-c2cccc(Nc3nccc(-c4nccs4)n3)c2)c1 [Compound I-21]
< 100 nM,,,Clc1cccc(-c2cccc(Nc3nccc(-c4nccs4)n3)c2)c1Cl [Compound I-24]
,< 500 nM,,c1cncc(COc2cccc(N(Cc3cccnc3)c3nccc(-c4nccs4)n3)c2)c1 [Compound I-26]
< 100 nM,,,FC(F)(F)c1ccccc1-c1cccc(Nc2nccc(-c3nccs3)n2)c1 [Compound I-27]
< 100 nM,> 2000 nM,,Clc1cccc(Nc2nccc(-c3nccs3)n2)n1 [Compound I-28]
< 100 nM,,,FC(F)(F)c1cccc(-c2cccc(Nc3nccc(-c4nccs4)n3)c2)c1 [Compound I-30]
< 100 nM,,,CCOc1ccc(-c2cccc(Nc3nccc(-c4nccs4)n3)c2)cc1 [Compound I-33]
100 to 1000 nM,,,CCOc1ccccc1-c1cccc(Nc2nccc(-c3nccs3)n2)c1 [Compound I-36]
< 100 nM,,,Cc1ccc(C)c(-c2cccc(Nc3nccc(-c4nccs4)n3)c2)c1 [Compound I-39]

Ki (GSK3-β (AA 1-420)),IC50 (Aurora2),IC50 (Syk),Compound
< 100 nM,> 2000 nM,,O=[N+]([O-])c1ccc(Nc2nccc(-c3nccs3)n2)cc1 [Compound I-40]
< 100 nM,> 2000 nM,,Fc1ccccc1COc1cccc(Nc2nccc(-c3nccs3)n2)c1 [Compound I-41]
< 100 nM,,,CCOc1cccc(-c2cccc(Nc3nccc(-c4nccs4)n3)c2)c1 [Compound I-42]
< 100 nM,,< 500 nM,COc1ccccc1COc1cccc(Nc2nccc(-c3nccs3)n2)c1 [Compound I-44]
< 100 nM,,,CS(=O)(=O)c1ccc(-c2cccc(Nc3nccc(-c4nccs4)n3)c2)cc1 [Compound I-45]
< 100 nM,,> 2000 nM,FC(F)(F)c1ccccc1COc1cccc(Nc2nccc(-c3nccs3)n2)c1 [Compound I-47]
< 100 nM,,,N#Cc1ccc(-c2cccc(Nc3nccc(-c4nccs4)n3)c2)cc1 [Compound I-48]
,500 to 2000 nM,< 500 nM,c1cncc(Oc2cccc(Nc3nccc(-c4nccs4)n3)c2)c1 [Compound I-50]
100 to 1000 nM,,,COc1cccc(OC)c1-c1cccc(Nc2nccc(-c3nccs3)n2)c1 [Compound I-51]
,,500 to 2000 nM,c1ccc(Oc2cccc(Nc3nccc(-c4nccs4)n3)c2)nc1 [Compound I-53]
< 100 nM,,,COc1ccc(OC)c(-c2cccc(Nc3nccc(-c4nccs4)n3)c2)c1 [Compound I-54]
< 100 nM,,,Nc1cccc(-c2cccc(Nc3nccc(-c4nccs4)n3)c2)c1 [Compound I-57]
< 100 nM,,,CSc1ccc(-c2cccc(Nc3nccc(-c4nccs4)n3)c2)cc1 [Compound I-60]
< 100 nM,,,c1cncc(-c2cccc(Nc3nccc(-c4nccs4)n3)c2)c1 [Compound I-63]
< 100 nM,,,Oc1ccc(-c2cccc(Nc3nccc(-c4nccs4)n3)c2)cc1 [Compound I-66]
< 100 nM,,,Oc1ccccc1-c1cccc(Nc2nccc(-c3nccs3)n2)c1 [Compound I-69]
,500 to 2000 nM,,COc1ccc(Nc2nccc(-c3nccs3)n2)cc1 [Compound I-70]
< 100 nM,,,Oc1cccc(-c2cccc(Nc3nccc(-c4nccs4)n3)c2)c1 [Compound I-72]
< 100 nM,,,COc1cc(O)ccc1-c1cccc(Nc2nccc(-c3nccs3)n2)c1 [Compound I-75]

Ki (GSK3-β (AA 1-420)),IC50 (Aurora2),IC50 (Syk),Compound
< 100 nM,,,c1cc(Nc2nccc(-c3nccs3)n2)cc(-c2ccc3[nH]ccc3c2)c1 [Compound I-78]
< 100 nM,> 2000 nM,,N#Cc1cccc(COc2cccc(Nc3nccc(-c4nccs4)n3)c2)c1 [Compound I-79]
< 100 nM,,,CN(C)c1ccc(-c2cccc(Nc3nccc(-c4nccs4)n3)c2)cc1 [Compound I-81]
< 100 nM,,,Cc1cnc(Nc2cccc(-c3ccc(O)cc3)c2)nc1-c1nccs1 [Compound I-84]
< 100 nM,> 2000 nM,,Fc1ccc(COc2cccc(Nc3nccc(-c4nccs4)n3)c2)cc1F [Compound I-85]
< 100 nM,,,Cc1cnc(Nc2cccc(-c3cccnc3)c2)nc1-c1nccs1 [Compound I-87]
< 100 nM,,,Cc1cnc(Nc2cccc(-c3cccc(N)c3)c2)nc1-c1nccs1 [Compound I-90]
> 1000 nM,,,COc1ccc(-c2ccccc2)cc1Nc1ncc(C)c(-c2nccs2)n1 [Compound I-93]
> 1000 nM,,,COc1ccc(-c2ccccc2)cc1Nc1nccc(-c2nccs2)n1 [Compound I-96]
,> 2000 nM,,O=[N+]([O-])c1cccc(Nc2cccc(Nc3nccc(-c4nccs4)n3)c2)c1 [Compound I-97]
< 100 nM,,,Cc1cnc(Nc2cccc(C(F)(F)F)c2)nc1-c1nccs1 [Compound I-99]
< 100 nM,> 2000 nM,,Fc1cccc(COc2cccc(Nc3nccc(-c4nccs4)n3)c2)c1 [Compound I-100]
< 100 nM,> 2000 nM,,Fc1cc(F)cc(COc2cccc(Nc3nccc(-c4nccs4)n3)c2)c1 [Compound I-103]
< 100 nM,,,COc1ccc(Nc2nccc(-c3nccs3)n2)cc1Oc1cccc(F)c1 [Compound I-105]
100 to 1000 nM,,,COc1ccc(Nc2nccc(-c3nccs3)n2)cc1Oc1cccc(Cl)c1 [Compound I-108]
< 100 nM,,,COc1ccc(Nc2nccc(-c3nccs3)n2)cc1Oc1ccc(Cl)cc1 [Compound I-111]
> 1000 nM,500 to 2000 nM,,COc1ccc(Oc2ccccc2)cc1Nc1nccc(-c2nccs2)n1 [Compound I-114]
< 100 nM,,> 2000 nM,Cc1ccccc1COc1cccc(Nc2nccc(-c3nccs3)n2)c1 [Compound I-115]
> 1000 nM,,,COc1ccc(Oc2ccccc2)cc1Nc1ncc(C)c(-c2nccs2)n1 [Compound I-117]
